According to patent US20240122180A1, “FUNGICIDAL HALOMETHYL KETONES AND HYDRATES AND THEIR MIXTURES” (FMC Corporation, priority 2020, published 2024):

Assays:
[1] = test system: Phakopsora pachyrhizi (the causal agent of Asian soybean rust); assay: Test A: preventive spray on soybean seedlings, visual disease rating (100 = 100% control; * 50 ppm, ** 10 ppm, *** 250 ppm); type: in vivo; settings: 100 = 100% disease control; for pest or weed control at 10 ppm: Phakopsora pachyrhizi
Outline: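 Soybean seedlings sprayed to run-off with compound suspended in acetone/water with 250 ppm PEG400 surfactant, inoculated next day with P. pachyrhizi spores. Kept 24 h saturated at 22 °C, then 8 days at 22 °C before visual rating of disease control (0-100) relative to controls.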

[2] = test system: Puccinia recondita f. sp. tritici (the causal agent of wheat leaf rust); assay: Test B: preventive spray on wheat seedlings, disease rating (100 = 100% control; * 50 ppm, ** 10 ppm, *** 250 ppm); type: in vivo; settings: 100 = 100% disease control; for pest or weed control at 10 ppm: Puccinia recondita
Outline: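 Wheat seedlings sprayed to run-off with compound in acetone/water (50/50) containing 250 ppm PEG400, inoculated next day with Puccinia recondita f. sp. tritici spores. Held 24 h saturated at 20° C, then 6 days at 20° C; disease control rated 0–100 relative to controls.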

[3] = 10 ppm test suspension, soybean seedlings
[4] = 10 ppm test suspension, wheat seedlings
[5] = 50 ppm test suspension, 0 = no control
[6] = 10 ppm test suspension, 0 = no control

SMILES: CCO/C(=C\Oc1ccc(Cn2ccnc2)cc1)C(F)(F)F [compound 156]
- Test A disease control rating [1, 3]: 0%
- Test B disease control rating [2, 4]: 0%

SMILES: CCOC(=O)c1cnn(Cc2ccc(NCC3(C(F)(F)F)OCCO3)cc2)c1 [compound 443]
- Test A disease control rating [1, 5]: 48%
- Test B disease control rating [2, 5]: 0%

SMILES: CCOC(=O)c1cnn(Cc2ccc(OCC(O)(O)C(F)(F)F)cc2)c1 [compound 227]
- Test A disease control rating [1, 3]: 99%
- Test B disease control rating [2, 4]: 55%

SMILES: CCNC(=O)N1CC(c2ccc(OC=C(OCC)C(F)(F)F)cc2)C1 [compound 412]
- Test A disease control rating [1, 5]: 100%
- Test B disease control rating [2, 5]: 0%

SMILES: CCO/C(=C\Oc1cccc(Cc2nc(C(=O)NCC(F)F)cs2)c1)C(F)(F)F [compound 398]
- pest or weed control at 10 ppm [1, 6]: 0%
- pest or weed control at 10 ppm [2, 6]: 0%

SMILES: CCOC(=O)c1cncn1Cc1cccc(O/C=C(\OCC)C(F)(F)F)c1 [compound 447]
- pest or weed control at 10 ppm [1, 6]: 0%
- pest or weed control at 10 ppm [2, 6]: 0%

SMILES: CCO/C(=C\Oc1ccc(Cn2cc(Cl)cn2)cc1)C(F)(F)F [compound 180]
- Test A disease control rating [1, 3]: 0%
- Test B disease control rating [2, 4]: 0%

SMILES: CCOC(=O)c1ccn(Cc2ccc(OC)c(O/C=C(\OCC)C(F)(F)F)c2)n1 [compound 407]
- Test A disease control rating [1, 5]: 0%
- Test B disease control rating [2, 5]: 0%

SMILES: O=C(OCC1CCCCC1)c1cnn(Cc2ccc(OCC3(C(F)(F)F)OCCO3)cc2)c1 [compound 272]
- Test A disease control rating [1, 6]: 100%
- Test B disease control rating [2, 6]: 0%

SMILES: CCOC(=O)c1cnn(Cc2ccc(O/C=C(\OCC)C(F)(F)F)c(Br)c2)c1 [compound 344]
- Test A disease control rating [1, 5]: 100%
- Test B disease control rating [2, 5]: 0%

SMILES: CCOC(=COc1ccc(Cn2nccc2C(=O)OC)cc1)C(F)(F)F [compound 250]
- Test A disease control rating [1, 3]: 0%
- Test B disease control rating [2, 4]: 0%

SMILES: CCO/C(=C\Oc1ccc(Cn2cncc2C(=O)OC)cc1)C(F)(F)F [compound 85]
- Test A disease control rating [1, 3]: 89%
- Test B disease control rating [2, 4]: 0%

SMILES: CCO/C(=C\Oc1ccc(CN)cc1)C(F)(F)F [compound 110]
- Test A disease control rating ([1]; 50 ppm test suspension, soybean seedlings): 79%
- Test B disease control rating ([2]; 50 ppm test suspension, wheat seedlings): 0%

SMILES: CCOC(=COc1ccc(Cn2ccc(C(=O)OC(C)(C)C)n2)cc1)C(F)(F)F [compound 253]
- Test A disease control rating [1, 3]: 0%
- Test B disease control rating [2, 4]: 0%

SMILES: CCOC(=O)c1cnn(Cc2ccc(F)c(O/C=C(\OCC)C(F)(F)F)c2)c1 [compound 418]
- Test A disease control rating [1, 6]: 0%
- Test B disease control rating [2, 6]: 0%

SMILES: CCNC(=O)N1CC(c2ccc(OCC3(C(F)(F)F)OCCO3)cc2)C1 [compound 411]
- Test A disease control rating [1, 5]: 87%
- Test B disease control rating [2, 5]: 0%

SMILES: CCNC(=O)OCc1ccc(O/C=C(\OCC)C(F)(F)F)cc1 [compound 196]
- Test A disease control rating [1, 3]: 0%
- Test B disease control rating [2, 4]: 74%

SMILES: O=C(OC1CCC1)c1cnn(Cc2ccc(OCC3(C(F)(F)F)OCCO3)cc2)c1 [compound 318]
- Test A disease control rating [1, 6]: 100%
- Test B disease control rating [2, 6]: 0%

SMILES: CCOC(=O)c1cnn(Cc2ccc(O/C=C(\OCC)C(F)(F)F)cc2)n1 [compound 119]
- Test A disease control rating [1, 3]: 97%
- Test B disease control rating [2, 4]: 0%

SMILES: CCOC(=O)c1cnn(COc2ccc(OCC(O)(O)C(F)(F)F)cc2)c1 [Compound 366, ethyl 1-[[4-(3,3,3-trifluoro-2,2-dihydroxypropoxy)phenoxy]methyl]-1H-pyrazole-4-carboxylate]
- pest or weed control at 10 ppm [1, 6]: 79%
- pest or weed control at 10 ppm [2, 6]: 55%

SMILES: CCOC(=O)c1ccn(Cc2cc(C)cc(O/C=C(\OCC)C(F)(F)F)c2)n1 [compound 405]
- Test A disease control rating [1, 5]: 0%
- Test B disease control rating [2, 5]: 0%

SMILES: CN(C)C(=O)c1cnn(Cc2ccc(OCC3(C(F)(F)F)OCCO3)cc2)c1 [compound 198]
- Test A disease control rating [1, 3]: 0%
- Test B disease control rating [2, 4]: 0%

SMILES: CCO/C(=C\Oc1ccc(Cn2cc(C(=O)OC(C)C)cn2)cc1)C(F)(F)F [compound 139]
- Test A disease control rating [1, 3]: 100%
- Test B disease control rating [2, 4]: 0%

SMILES: CCOC(=O)c1ccnn1Cc1ccc(OC)c(O/C=C(\OCC)C(F)(F)F)c1 [compound 463]
- Test A disease control rating [1, 6]: 0%
- Test B disease control rating [2, 6]: 0%

SMILES: O=C(CC(F)(F)F)NCc1ccc(OCC2(C(F)(F)F)OCCO2)cc1 [compound 212]
- Test A disease control rating [1, 3]: 44%
- Test B disease control rating [2, 4]: 0%

SMILES: O=C(NCC1CC1)c1cnn(Cc2ccc(OCC(O)(O)C(F)(F)F)cc2)c1 [compound 36]
- Test A disease control rating [1, 3]: 70%
- Test B disease control rating [2, 4]: 0%

SMILES: O=C(OCC1CCC1)c1cnn(Cc2ccc(OCC3(C(F)(F)F)OCCO3)cc2)c1 [compound 249]
- Test A disease control rating [1, 3]: 100%
- Test B disease control rating [2, 4]: 0%

SMILES: CCOC(=O)c1cnn(Cc2ccc(OCC3(C(F)(F)F)OCCCO3)cc2)c1 [compound 52]
- Test A disease control rating [1, 3]: 99%
- Test B disease control rating [2, 4]: 0%

SMILES: CCO/C(=C\Oc1ccc(Cn2ccc(C(=O)OCC(C)C)n2)cc1)C(F)(F)F [compound 357]
- Test A disease control rating [1, 6]: 100%
- Test B disease control rating [2, 6]: 9%

SMILES: CCOC(=COc1ccc(CN2CCC(C(=O)OC)C2)cc1)C(F)(F)F (centres unmarked) [compound 310]
- Test A disease control rating [1, 6]: 100%
- Test B disease control rating [2, 6]: 0%

SMILES: CCOC(=COc1ccc(Cn2ccc(C(F)(F)F)n2)cc1)C(F)(F)F [compound 181]
- Test A disease control rating [1, 3]: 0%
- Test B disease control rating [2, 4]: 0%

SMILES: O=C(OCC1CCCC1)c1cnn(Cc2ccc(OCC3(C(F)(F)F)OCCO3)cc2)c1 [compound 284]
- Test A disease control rating [1, 6]: 100%
- Test B disease control rating [2, 6]: 0%

SMILES: C=CCNC(=O)c1ccc(O/C=C(\OCC)C(F)(F)F)cc1 [compound 103]
- Test A disease control rating [1, 3]: 0%
- Test B disease control rating [2, 4]: 0%

SMILES: CCOC(=O)c1cnn(Cc2ccc(OCC3(C(F)(F)F)OCCO3)nc2)c1 [compound 166]
- Test A disease control rating [1, 3]: 100%
- Test B disease control rating [2, 4]: 95%

SMILES: CCOC(=O)c1ccn(Cc2cc(OC)cc(O/C=C(\OCC)C(F)(F)F)c2)n1 [compound 378]
- Test A disease control rating [1, 6]: 0%
- Test B disease control rating [2, 6]: 0%

SMILES: CCO/C(=C\Oc1ccc(C(N)=O)cc1)C(F)(F)F [compound 99]
- Test A disease control rating [1, 3]: 0%
- Test B disease control rating [2, 4]: 80%

SMILES: CCO/C(=C\Oc1ccc(Cn2cnc(C(=O)OC)c2)cc1)C(F)(F)F [compound 86]
- Test A disease control rating [1, 3]: 99%
- Test B disease control rating [2, 4]: 0%
